Patent publication US11304919B2, “Utilization of cilastatin in inhibiting renal disorder” (NIIGATA UNIVERSITY, priority 2018, dated 2022)

Assays:
Type in all cases: in vivo, mouse
megalin = assay: Contrast nephropathy model in kidney-specific megalin partial knockout mice (apoE-Cre), megalin/KIM-1 immunostaining (Reference Example 3); settings: 200 μL iomeprol, 48 h after administration, FIGS. 10A-10C
Description: Similar murine models of contrast nephropathy to those of Reference Example 1 were constructed using kidney-specific megalin partial knockout mice (apoE-Cre), and were used to verify the involvement of megalin in the onset of contrast-induced renal injuries.
Left kidneys were extracted from the apoE-Cre knockout mice, and 14 days later, right kidney pedicles were ligated for 30 minutes. Thereafter, reperfusion was carried out. After 24 hours from the start of reperfusion, 200 μL of iomeprol or normal saline was administered from the tail vein.
The stained slices were mounted with Slow Fade Gold Antifade Reagent (Life Technologies) and observed using a fluorescence microscopy (BZ-9000, Keyence). In particular, it was verified whether megalin and KIM-1 were expressed in the S1 and S2 segments of renal proximal tubules.

C57BL/6J mice [1] = assay: Inhibition of contrast-induced renal injuries in murine contrast nephropathy model (Example 2)
Description: In order to confirm the ability of cilastatin to inhibit renal injuries, C57BL/6J mice were simultaneously administered with an iodinated contrast medium and cilastatin, and the results were analyzed.
Left kidneys were extracted from the C57BL/6J mice, and 14 days later, right kidney pedicles were ligated for 30 minutes. Thereafter, reperfusion was carried out. […]
a) Contrast medium+cilastatin-treated group: 200 μL of iomeprol (CM)+400 mg/kg cilastatin (CS) (100 LL) b) Contrast medium+normal saline-treated group: 200 μL of iomeprol (CM)+100 μL of NS For each of the groups, after 48 hours from the medication, blood and urine samples were collected, and serum Cr, MN and cystatin C levels, and urinary Cr, NAG and KIM-1 levels were measured. Further, right kidneys were extracted and histologically evaluated by immunostaining with KIM-1 and staining with PAS. […] Serum cystatin C and urinary KIM-1 measurements were contracted to Oriental Yeast Co., Ltd.
0.5±: Clear but weak granular staining present focally along the luminal surface of non-atrophic proximal tubules 1+: Clear but weak granular staining completely surrounding the luminal surface of non-atrophic proximal tubules 2+: Moderately intense granular staining completely surrounding the luminal surface of non-atrophic proximal tubules and extending into intercellular junctions 3+: Strong large granular staining completely surrounding the luminal surface of non-atrophic proximal tubules and extending into intercellular junctions […]
Individuals meeting these criteria were regarded as individuals with onset of contrast nephropathy.

C57BL/6J mice [2] = assay: Murine model of contrast nephropathy (Reference Example 1)
Description: Murine models of contrast nephropathy were constructed.
Left kidneys were extracted from C57BL/6J mice (male, aged 9-12 weeks, Charles River Laboratories International), and 14 days later, right kidney pedicles were ligated for 30 minutes. Thereafter, reperfusion was carried out. For the iomeprol-treated group, 200 μL of iomeprol was administered from the tail vein after 24 hours from the start of reperfusion. For the control group, 200 μL of normal saline instead of iomeprol was administered from the tail vein. After 48 hours from the administration, the animals in both groups were euthanized and evaluated.
For 24 hours before euthanization, urine samples were collected using a metabolic cage. […] The collected blood samples were centrifuged for 30 minutes at 800 g at room temperature to separate and collect the serum. The obtained urine and serum samples were stored at −80° C. until analysis.
For biochemical evaluation of renal injuries, serum creatinine (Cr) and urea nitrogen (MN) levels, and urinary Cr and β-D-N-acetylglucosaminidase (NAG) were measured. Serum MN and Cr measurements were contracted to Oriental Yeast Co., Ltd., and urinary NAG and Cr measurements were to SRL, Inc.
The obtained thin slices were stained with periodic acid-Shiff (PAS) and immunostained with the renal injury marker Kidney Injury Molecule-1 (KIM-1). The immunostaining was performed using VECTASTAIN Elite ABC Kit (Vector Laboratories, Inc.).

In the case of `CN(C(=O)CO)c1c(I)c(C(=O)NCC(O)CO)c(I)c(C(=O)NCC(O)CO)c1I` (stereo not shown) [iomeprol], the “KIM-1 expression relative to megalin expression in renal proximal tubular epithelial cells” value (megalin) is reported as “expressed in a specific manner in the renal proximal tubular epithelial cells with expression of megalin”, the “percentage of individuals with onset of contrast nephropathy” value (C57BL/6J mice [1]; 200 μL iomeprol + 100 μL normal saline, 48 h after medication) is reported as 27% and the “KIM-1 expression in kidney tissue (immunostaining)” value (C57BL/6J mice [1]; iomeprol + normal saline, individuals with increased serum creatinine, FIG. 17) is reported as “widely expressed, mainly in the S1 and S2 segments”. For the same compound, the “PAS staining of kidney tissue” value (C57BL/6J mice [1]; iomeprol + normal saline, individuals with increased serum creatinine, FIG. 19) was “formation of vacuoles in renal proximal tubular epithelial cells was observed”, the “serum Cr compared to the control (NS) group” value (C57BL/6J mice [2]; 200 μL iomeprol tail vein 24 h after reperfusion, evaluated 48 h after administration, FIG. 1) was “significant (t-test) increase” and the “KIM-1 expression in kidney tissue (immunostaining)” value (C57BL/6J mice [2]; 200 μL iomeprol, 48 h after administration, FIG. 2) was “widely expressed mainly in the S1 and S2 segments of renal proximal tubular epithelial cells”. For the same compound, the “PAS staining of kidney tissue” value (C57BL/6J mice [2]; 200 μL iomeprol, 48 h after administration, FIG. 3) was “formation of vacuoles was observed”.
